The source made the active and inactive calls. For most assays here, no stated cut-off is given here; in the data, actives have a measured Kd and inactives only a lower limit.
Columns and labels:
[1] = molecular target: Tyrosine-protein kinase ABL2 (Homo sapiens, UniProt P42684)
Aurora kinase A = molecular target: T1, Aurora kinase A (Homo sapiens, UniProt O14965)
T1 sequence (O14965 whole entry): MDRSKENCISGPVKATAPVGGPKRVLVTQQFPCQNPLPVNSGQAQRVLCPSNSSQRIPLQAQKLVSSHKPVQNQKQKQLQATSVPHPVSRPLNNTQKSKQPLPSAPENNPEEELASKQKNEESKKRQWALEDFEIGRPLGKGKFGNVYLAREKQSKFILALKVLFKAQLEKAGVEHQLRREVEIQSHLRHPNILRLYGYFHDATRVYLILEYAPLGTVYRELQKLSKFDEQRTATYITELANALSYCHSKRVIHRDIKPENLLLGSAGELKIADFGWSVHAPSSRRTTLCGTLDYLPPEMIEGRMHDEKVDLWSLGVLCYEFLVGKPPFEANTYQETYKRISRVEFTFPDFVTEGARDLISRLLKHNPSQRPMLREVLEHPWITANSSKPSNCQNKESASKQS

[2] = molecular target: Calcium/calmodulin-dependent protein kinase type II subunit delta (Homo sapiens, UniProt Q13557)
[3] = molecular target: T2, ATP-dependent RNA helicase DDX42 (Homo sapiens, UniProt Q86XP3)
T2 sequence (Q86XP3 whole entry): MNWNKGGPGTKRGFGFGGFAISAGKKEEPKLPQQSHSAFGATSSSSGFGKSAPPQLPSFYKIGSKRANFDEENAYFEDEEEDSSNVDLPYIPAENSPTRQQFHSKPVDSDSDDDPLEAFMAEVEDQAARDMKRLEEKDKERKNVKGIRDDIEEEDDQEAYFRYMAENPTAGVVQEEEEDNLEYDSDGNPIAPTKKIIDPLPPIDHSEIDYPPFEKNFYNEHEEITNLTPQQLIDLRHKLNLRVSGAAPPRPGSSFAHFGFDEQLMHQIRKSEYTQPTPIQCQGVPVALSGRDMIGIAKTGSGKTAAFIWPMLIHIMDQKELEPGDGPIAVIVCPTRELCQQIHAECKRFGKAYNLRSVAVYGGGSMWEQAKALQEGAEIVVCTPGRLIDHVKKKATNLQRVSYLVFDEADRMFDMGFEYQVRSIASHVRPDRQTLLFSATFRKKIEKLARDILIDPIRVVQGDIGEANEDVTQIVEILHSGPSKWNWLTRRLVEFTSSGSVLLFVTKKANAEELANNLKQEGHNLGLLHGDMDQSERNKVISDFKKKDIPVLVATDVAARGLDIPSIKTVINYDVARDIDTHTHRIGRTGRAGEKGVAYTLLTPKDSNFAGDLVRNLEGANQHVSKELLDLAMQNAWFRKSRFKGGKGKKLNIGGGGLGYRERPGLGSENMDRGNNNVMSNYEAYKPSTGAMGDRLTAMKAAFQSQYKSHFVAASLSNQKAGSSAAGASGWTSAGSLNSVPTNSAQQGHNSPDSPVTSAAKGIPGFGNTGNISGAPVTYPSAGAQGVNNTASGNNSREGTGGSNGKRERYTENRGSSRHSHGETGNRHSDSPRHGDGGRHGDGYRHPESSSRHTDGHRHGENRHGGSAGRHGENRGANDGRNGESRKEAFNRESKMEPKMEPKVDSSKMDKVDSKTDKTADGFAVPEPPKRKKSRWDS

Ephrin type-A receptor 7 = Ephrin type-A receptor 7 (Homo sapiens, UniProt Q15375)
[4] = molecular target: Mitogen-activated protein kinase kinase kinase kinase 5 (Homo sapiens, UniProt Q9Y4K4)
[5] = molecular target: Mitogen-activated protein kinase 7 (Homo sapiens, UniProt Q13164)
[6] = molecular target: Ras-related protein Rab-6A (Homo sapiens, UniProt P20340)
[7] = molecular target: Serine/threonine-protein kinase 26 (Homo sapiens, UniProt Q9P289)
[8] = molecular target: T3, Serine/threonine-protein kinase 4 (Homo sapiens, UniProt Q13043)
T3 sequence (Q13043 whole entry): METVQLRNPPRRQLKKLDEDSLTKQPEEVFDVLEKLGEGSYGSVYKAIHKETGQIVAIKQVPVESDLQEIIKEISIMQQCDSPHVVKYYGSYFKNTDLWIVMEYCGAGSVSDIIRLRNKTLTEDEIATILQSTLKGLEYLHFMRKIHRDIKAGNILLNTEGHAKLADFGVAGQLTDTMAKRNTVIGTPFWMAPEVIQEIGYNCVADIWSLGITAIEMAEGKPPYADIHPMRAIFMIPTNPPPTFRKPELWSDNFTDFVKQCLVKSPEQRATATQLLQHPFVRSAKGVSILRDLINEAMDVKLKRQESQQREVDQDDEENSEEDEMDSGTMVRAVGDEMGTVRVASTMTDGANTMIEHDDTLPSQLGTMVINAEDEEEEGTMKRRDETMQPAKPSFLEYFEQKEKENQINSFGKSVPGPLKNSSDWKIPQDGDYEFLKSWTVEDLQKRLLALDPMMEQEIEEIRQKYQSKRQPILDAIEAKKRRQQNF

[9] = molecular target: T4, Succinate--CoA ligase [ADP-forming] subunit beta, mitochondrial (Homo sapiens, UniProt Q9P2R7)
T4 sequence (Q9P2R7 whole entry): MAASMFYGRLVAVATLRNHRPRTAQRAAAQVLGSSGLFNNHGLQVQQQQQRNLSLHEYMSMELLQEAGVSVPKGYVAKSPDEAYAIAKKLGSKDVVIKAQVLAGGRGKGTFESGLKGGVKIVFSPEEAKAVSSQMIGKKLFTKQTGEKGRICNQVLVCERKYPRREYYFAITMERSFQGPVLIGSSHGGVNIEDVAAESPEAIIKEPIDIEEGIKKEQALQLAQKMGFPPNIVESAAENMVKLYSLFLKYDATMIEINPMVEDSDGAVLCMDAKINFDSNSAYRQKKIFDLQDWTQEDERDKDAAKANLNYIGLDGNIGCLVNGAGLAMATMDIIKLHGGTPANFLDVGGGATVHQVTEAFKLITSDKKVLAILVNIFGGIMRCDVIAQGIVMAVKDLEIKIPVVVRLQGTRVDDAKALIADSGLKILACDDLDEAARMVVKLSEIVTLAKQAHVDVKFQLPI

[10] = molecular target: Elongation factor Tu, mitochondrial (Homo sapiens, UniProt P49411)

Ephrin type-A receptor 7, sequence (Q15375 whole entry): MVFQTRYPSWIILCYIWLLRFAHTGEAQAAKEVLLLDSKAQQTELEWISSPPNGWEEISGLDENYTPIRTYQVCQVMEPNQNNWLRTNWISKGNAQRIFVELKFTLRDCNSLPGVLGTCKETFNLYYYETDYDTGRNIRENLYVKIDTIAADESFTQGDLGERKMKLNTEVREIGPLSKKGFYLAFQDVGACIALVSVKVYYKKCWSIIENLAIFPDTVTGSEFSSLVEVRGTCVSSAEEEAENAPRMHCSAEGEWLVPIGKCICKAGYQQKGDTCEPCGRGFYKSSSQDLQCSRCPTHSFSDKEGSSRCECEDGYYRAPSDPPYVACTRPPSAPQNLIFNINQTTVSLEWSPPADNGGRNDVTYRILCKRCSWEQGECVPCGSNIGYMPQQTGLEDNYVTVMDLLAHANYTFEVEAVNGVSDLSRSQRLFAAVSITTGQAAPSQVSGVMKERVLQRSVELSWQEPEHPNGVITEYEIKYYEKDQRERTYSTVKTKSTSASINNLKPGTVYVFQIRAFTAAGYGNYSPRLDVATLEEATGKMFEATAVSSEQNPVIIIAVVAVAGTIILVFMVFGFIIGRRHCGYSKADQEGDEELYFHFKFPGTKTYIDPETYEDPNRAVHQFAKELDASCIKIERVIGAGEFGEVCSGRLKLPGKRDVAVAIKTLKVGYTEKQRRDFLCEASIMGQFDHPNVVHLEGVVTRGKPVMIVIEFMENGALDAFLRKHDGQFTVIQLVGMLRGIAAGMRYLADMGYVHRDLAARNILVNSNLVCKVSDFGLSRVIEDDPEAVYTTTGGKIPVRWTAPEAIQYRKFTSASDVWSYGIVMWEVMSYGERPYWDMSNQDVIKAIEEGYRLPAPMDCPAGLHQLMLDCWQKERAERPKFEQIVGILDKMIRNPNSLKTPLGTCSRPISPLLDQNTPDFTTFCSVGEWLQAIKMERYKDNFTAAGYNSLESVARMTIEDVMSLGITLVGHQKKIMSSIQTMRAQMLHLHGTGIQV
Calcium/calmodulin-dependent protein kinase type II subunit delta, sequence (Q13557 whole entry): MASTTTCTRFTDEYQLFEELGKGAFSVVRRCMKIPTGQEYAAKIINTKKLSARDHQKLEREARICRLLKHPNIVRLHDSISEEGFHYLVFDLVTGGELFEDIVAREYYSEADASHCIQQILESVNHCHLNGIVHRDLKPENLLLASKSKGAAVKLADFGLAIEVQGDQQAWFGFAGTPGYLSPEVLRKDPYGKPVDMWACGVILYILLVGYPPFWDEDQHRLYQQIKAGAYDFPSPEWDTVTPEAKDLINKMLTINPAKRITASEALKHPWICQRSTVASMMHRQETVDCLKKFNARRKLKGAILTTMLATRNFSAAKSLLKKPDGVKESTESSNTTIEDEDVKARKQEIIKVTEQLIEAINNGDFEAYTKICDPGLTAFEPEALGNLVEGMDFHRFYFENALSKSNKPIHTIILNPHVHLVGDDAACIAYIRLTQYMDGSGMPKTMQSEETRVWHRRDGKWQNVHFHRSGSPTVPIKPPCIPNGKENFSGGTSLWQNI
Ras-related protein Rab-6A, sequence (P20340 whole entry): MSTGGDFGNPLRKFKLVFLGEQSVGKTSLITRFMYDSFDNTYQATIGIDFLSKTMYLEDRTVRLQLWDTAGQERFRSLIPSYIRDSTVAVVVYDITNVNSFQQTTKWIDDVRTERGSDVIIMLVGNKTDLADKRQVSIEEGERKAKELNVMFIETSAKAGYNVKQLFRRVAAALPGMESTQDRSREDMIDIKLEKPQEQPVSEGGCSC
Tyrosine-protein kinase ABL2, sequence (P42684 whole entry): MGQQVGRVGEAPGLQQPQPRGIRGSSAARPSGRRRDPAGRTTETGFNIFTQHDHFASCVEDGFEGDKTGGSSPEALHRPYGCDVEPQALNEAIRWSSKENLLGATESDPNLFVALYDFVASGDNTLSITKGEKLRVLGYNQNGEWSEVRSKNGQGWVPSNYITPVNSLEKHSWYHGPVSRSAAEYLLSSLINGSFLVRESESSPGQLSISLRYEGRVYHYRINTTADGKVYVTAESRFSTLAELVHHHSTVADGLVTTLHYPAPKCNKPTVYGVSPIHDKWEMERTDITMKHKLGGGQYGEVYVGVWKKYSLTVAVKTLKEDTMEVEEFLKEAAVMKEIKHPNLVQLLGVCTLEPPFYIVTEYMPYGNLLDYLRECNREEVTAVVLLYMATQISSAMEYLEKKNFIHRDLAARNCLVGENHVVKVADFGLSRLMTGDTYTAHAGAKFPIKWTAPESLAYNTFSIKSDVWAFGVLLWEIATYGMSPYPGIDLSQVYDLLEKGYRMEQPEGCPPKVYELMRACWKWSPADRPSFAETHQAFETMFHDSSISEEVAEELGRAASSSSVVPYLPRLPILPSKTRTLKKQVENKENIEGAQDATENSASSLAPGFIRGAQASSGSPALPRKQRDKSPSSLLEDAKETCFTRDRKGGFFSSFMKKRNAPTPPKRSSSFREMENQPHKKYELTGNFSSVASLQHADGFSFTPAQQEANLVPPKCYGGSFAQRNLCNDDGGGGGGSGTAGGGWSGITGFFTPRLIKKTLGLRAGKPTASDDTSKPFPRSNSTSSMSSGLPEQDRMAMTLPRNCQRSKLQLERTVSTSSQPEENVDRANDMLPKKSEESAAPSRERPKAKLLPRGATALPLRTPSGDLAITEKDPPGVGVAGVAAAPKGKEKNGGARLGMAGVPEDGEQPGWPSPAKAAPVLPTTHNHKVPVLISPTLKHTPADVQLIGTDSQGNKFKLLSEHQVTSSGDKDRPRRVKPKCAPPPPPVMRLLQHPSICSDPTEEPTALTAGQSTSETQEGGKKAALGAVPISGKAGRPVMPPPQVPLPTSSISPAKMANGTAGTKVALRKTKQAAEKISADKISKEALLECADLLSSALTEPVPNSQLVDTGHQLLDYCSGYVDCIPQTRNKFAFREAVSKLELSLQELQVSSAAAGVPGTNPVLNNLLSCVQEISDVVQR
Mitogen-activated protein kinase 7, sequence (Q13164 whole entry): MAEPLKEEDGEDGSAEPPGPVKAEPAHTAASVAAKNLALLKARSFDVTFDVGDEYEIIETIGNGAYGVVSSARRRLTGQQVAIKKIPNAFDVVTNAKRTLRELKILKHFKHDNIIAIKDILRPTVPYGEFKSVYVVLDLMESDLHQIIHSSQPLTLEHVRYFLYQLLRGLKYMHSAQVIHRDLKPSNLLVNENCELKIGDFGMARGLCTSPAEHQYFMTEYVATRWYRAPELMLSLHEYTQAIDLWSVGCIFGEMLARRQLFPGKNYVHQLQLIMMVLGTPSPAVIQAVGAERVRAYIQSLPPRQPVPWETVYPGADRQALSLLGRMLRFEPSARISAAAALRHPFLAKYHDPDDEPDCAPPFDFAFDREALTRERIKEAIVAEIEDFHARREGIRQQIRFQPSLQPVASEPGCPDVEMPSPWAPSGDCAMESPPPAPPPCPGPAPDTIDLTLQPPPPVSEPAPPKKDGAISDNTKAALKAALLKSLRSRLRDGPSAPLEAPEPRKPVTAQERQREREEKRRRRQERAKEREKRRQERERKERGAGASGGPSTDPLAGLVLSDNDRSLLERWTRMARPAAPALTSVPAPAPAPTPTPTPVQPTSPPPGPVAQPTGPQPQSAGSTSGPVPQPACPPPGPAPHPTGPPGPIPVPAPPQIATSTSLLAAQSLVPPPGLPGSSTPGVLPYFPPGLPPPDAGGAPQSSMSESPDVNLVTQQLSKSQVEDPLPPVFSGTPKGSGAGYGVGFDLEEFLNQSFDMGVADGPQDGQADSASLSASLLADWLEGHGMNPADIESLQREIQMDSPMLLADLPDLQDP
Mitogen-activated protein kinase kinase kinase kinase 5, sequence (Q9Y4K4 whole entry): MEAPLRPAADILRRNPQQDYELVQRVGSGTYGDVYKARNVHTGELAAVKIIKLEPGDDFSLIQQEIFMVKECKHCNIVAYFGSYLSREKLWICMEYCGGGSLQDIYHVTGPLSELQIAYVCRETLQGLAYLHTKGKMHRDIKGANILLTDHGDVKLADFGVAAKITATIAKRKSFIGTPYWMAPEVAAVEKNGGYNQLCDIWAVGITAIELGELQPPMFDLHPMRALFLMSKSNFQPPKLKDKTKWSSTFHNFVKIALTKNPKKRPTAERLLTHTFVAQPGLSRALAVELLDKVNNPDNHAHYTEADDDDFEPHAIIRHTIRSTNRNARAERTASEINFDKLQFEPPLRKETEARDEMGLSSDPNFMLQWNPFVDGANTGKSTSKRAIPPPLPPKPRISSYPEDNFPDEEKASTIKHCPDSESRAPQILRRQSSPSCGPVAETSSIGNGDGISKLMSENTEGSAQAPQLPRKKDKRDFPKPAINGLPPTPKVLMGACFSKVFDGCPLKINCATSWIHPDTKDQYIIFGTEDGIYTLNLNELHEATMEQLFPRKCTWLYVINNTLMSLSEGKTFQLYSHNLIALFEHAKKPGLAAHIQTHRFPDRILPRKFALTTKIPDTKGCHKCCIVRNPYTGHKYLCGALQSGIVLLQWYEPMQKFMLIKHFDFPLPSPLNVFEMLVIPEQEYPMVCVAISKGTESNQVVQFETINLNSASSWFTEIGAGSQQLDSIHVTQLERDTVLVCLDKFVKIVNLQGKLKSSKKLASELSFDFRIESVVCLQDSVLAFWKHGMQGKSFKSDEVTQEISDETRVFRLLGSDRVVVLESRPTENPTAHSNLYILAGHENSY
Serine/threonine-protein kinase 26, sequence (Q9P289 whole entry): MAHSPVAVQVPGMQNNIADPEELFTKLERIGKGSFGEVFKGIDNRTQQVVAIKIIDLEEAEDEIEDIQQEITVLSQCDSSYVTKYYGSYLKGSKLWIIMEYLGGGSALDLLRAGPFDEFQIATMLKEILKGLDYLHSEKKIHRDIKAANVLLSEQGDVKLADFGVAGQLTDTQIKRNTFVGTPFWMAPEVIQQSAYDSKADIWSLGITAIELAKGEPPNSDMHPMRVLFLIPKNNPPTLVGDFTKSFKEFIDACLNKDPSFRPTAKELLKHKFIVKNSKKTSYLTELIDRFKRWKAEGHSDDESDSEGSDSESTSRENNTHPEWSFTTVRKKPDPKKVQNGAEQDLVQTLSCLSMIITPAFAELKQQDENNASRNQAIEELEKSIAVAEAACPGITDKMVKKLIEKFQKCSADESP

SMILES | Kd [1] | Kd (Aurora kinase A) | Kd [2] | Kd [3] | Kd (Ephrin type-A receptor 7) | Kd [4] | Kd [5] | Kd [6] | Kd [7] | Kd [8] | Kd [9] | Kd [10]
COc1cc([C@@H]2c3cc4c(cc3[C@H](O)[C@H]3COC(=O)[C@@H]23)OCO4)cc(OC)c1OC [AXL-1717] | > 30 µM (inactive) | > 30 µM (inactive) | > 30 µM (inactive) | > 30 µM (inactive) | > 30 µM (inactive) | > 30 µM (inactive) | > 30 µM (inactive) | > 30 µM (inactive) | > 30 µM (inactive) | > 30 µM (inactive) | > 30 µM (inactive) | > 30 µM (inactive)
COCc1c(-c2ccc(NC(=O)Nc3cc(C(F)(F)F)ccc3F)c(F)c2)c2c(N)ncnn2c1CN1CCOCC1 | > 30 µM (inactive) | > 30 µM (inactive) | > 30 µM (inactive) | > 30 µM (inactive) | > 30 µM (inactive) | > 30 µM (inactive) | > 30 µM (inactive) | > 30 µM (inactive) | > 30 µM (inactive) | > 30 µM (inactive) | > 30 µM (inactive) | > 30 µM (inactive)
Nc1ncnc2c1c(-c1cccc(OCc3ccccc3)c1)cn2[C@H]1C[C@@H](CN2CCC2)C1 [AEW-541] | > 30 µM (inactive) | > 30 µM (inactive) | > 30 µM (inactive) | > 30 µM (inactive) | > 30 µM (inactive) | 2.49 µM (active) | > 30 µM (inactive) | > 30 µM (inactive) | > 30 µM (inactive) | 3.77 µM (active) | > 30 µM (inactive) | > 30 µM (inactive)
COc1cc2c(Nc3ccc(Cl)c(Cl)c3F)ncnc2cc1OC[C@@H]1C[C@@H]2CN(C)C[C@@H]2C1 [TESEVATINIB] | 0.628 µM (active) | > 30 µM (inactive) | > 30 µM (inactive) | > 30 µM (inactive) | 0.022 µM | 0.908 µM (active) | > 30 µM (inactive) | > 30 µM (inactive) | > 30 µM (inactive) | > 30 µM (inactive) | > 30 µM (inactive) | > 30 µM (inactive)
CO[C@H]1C[C@@H]2CC[C@@H](C)[C@@](O)(O2)C(=O)C(=O)N2CCCC[C@H]2C(=O)O[C@H]([C@H](C)C[C@@H]2CC[C@@H](OC(=O)C(C)(CO)CO)[C@H](OC)C2)CC(=O)[C@H](C)/C=C(\C)[C@@H](O)[C@@H](OC)C(=O)[C@H](C)C[C@H](C)/C=C/C=C/C=C/1C [TEMSIROLIMUS] | > 30 µM (inactive) | > 30 µM (inactive) | > 30 µM (inactive) | > 30 µM (inactive) | > 30 µM (inactive) | > 30 µM (inactive) | > 30 µM (inactive) | > 30 µM (inactive) | > 30 µM (inactive) | > 30 µM (inactive) | > 30 µM (inactive) | > 30 µM (inactive)
Cn1cnc2c(F)c(Nc3ccc(Br)cc3F)c(C(=O)NOCCO)cc21 [BINIMETINIB] | > 30 µM (inactive) | > 30 µM (inactive) | > 30 µM (inactive) | > 30 µM (inactive) | > 30 µM (inactive) | > 30 µM (inactive) | > 30 µM (inactive) | > 30 µM (inactive) | > 30 µM (inactive) | > 30 µM (inactive) | > 30 µM (inactive) | > 30 µM (inactive)
COc1c(OCCCN2CCOCC2)ccc2c1N=C(NC(=O)c1cnc(N)nc1)N1CCN=C21 [COPANLISIB] | > 30 µM (inactive) | > 30 µM (inactive) | > 30 µM (inactive) | > 30 µM (inactive) | > 30 µM (inactive) | > 30 µM (inactive) | > 30 µM (inactive) | > 30 µM (inactive) | > 30 µM (inactive) | > 30 µM (inactive) | > 30 µM (inactive) | > 30 µM (inactive)
O=c1[nH]ccc2cc(OC3CCNCC3)ccc12 [SAR-407899 FREE BASE] | > 30 µM (inactive) | > 30 µM (inactive) | > 30 µM (inactive) | > 30 µM (inactive) | > 30 µM (inactive) | > 30 µM (inactive) | > 30 µM (inactive) | > 30 µM (inactive) | > 30 µM (inactive) | > 30 µM (inactive) | > 30 µM (inactive) | > 30 µM (inactive)
CNC(=O)c1cccc2cc(Oc3ccnc4cc(OCC5(N)CC5)c(OC)cc34)ccc12 [LUCITANIB] | > 30 µM (inactive) | > 30 µM (inactive) | > 30 µM (inactive) | > 30 µM (inactive) | > 30 µM (inactive) | > 30 µM (inactive) | > 30 µM (inactive) | > 30 µM (inactive) | > 30 µM (inactive) | > 30 µM (inactive) | > 30 µM (inactive) | > 30 µM (inactive)
C=CC(=O)Nc1cc2c(Nc3ccc(F)c(Cl)c3)ncnc2cc1C#CC(C)(C)N1CCN(C)CC1 [AV-412 FREE BASE] | > 30 µM (inactive) | > 30 µM (inactive) | > 30 µM (inactive) | > 30 µM (inactive) | > 30 µM (inactive) | > 30 µM (inactive) | > 30 µM (inactive) | > 30 µM (inactive) | > 30 µM (inactive) | > 30 µM (inactive) | > 30 µM (inactive) | > 30 µM (inactive)
C[C@@H](NC(=O)c1ncnc(N)c1Cl)c1ncc(C(=O)Nc2cc(C(F)(F)F)c(Cl)cn2)s1 [TOVORAFENIB] | 0.099 µM (active) | > 30 µM (inactive) | > 30 µM (inactive) | > 30 µM (inactive) | > 30 µM (inactive) | > 30 µM (inactive) | > 30 µM (inactive) | > 30 µM (inactive) | > 30 µM (inactive) | > 30 µM (inactive) | > 30 µM (inactive) | > 30 µM (inactive)
Cn1cc(-c2cnn3c(N)c(Br)c([C@@H]4CCCNC4)nc23)cn1 [SCH-900776] | > 30 µM (inactive) | > 30 µM (inactive) | > 30 µM (inactive) | > 30 µM (inactive) | > 30 µM (inactive) | > 30 µM (inactive) | > 30 µM (inactive) | > 30 µM (inactive) | > 30 µM (inactive) | > 30 µM (inactive) | > 30 µM (inactive) | > 30 µM (inactive)
